Reference: patent publication US11679168B2, “Caspase-3-triggered molecular self-assembling PET probes and uses thereof” (The Board of Trustees of the Leland Stanford Junior …, priority 2018, dated 2023)
Peptide text beside a SMILES is read from it. * marks the point of attachment. Cbz = O=C(OCc1ccccc1)*; CH2F = FC*

Columns and labels:
[1] = Condensation kinetics of aminothiols with CBT (HPLC assay); assay type: physicochemical; conditions: substituted cysteine analogues with CBT, FIG. 50B
Experimental: General Methods for Measuring Kinetics of Condensation Reactions Between Aromatic Nitriles and Aminothiols: The 2nd order rate constants for condensation reactions between aromatic nitriles and aminothiols were measured by using HPLC assays. To solutions of aromatic nitriles (100 μM) in phosphate buffered saline (PBS) (1×, pH=7.4) were added aminothiol (1.0 equiv.), TCEP (2.0 equiv.) and NaHCO3 (3 equiv.). The reaction solutions were kept at room temperature (23° C.) and monitored by HPLC at different time points. The conversion rates were calculated using the peak integrals of aromatic nitriles and the condensation products at 254 nm. Based on 2nd order reaction law, 1/[aromatic nitrile] was plotted against time and the slope of the linear regression result gives the 2nd order rate constant.

[2] = L-cysteine with CBT; reported in Reference 13; cited from earlier work
[3] = system: caspase-3 activity in H460 cells; assay: Confocal imaging of cisplatin-treated H460 cells with C-SNAF4-Cy5; assay type: cell-based, human; conditions: 50 μM
Experimental: Confocal Microscopy Imaging of Cisplatin-treated H460 Cells With C-SNAF4-Cy5: NCI-H460 cells at 70% confluency were either left naïve or treated with cisplatin (10 μM) for 24 hours. After removal of the medium, cells were incubated with 2 μM C-SNAF4-Cy5 at 37° C. for 24 hours. For the inhibition study, cells were first incubated with pan-caspase inhibitor Z-VAD-fmk (50 μM, 30 min) before incubation with C-SNAF4-Cy5.

[4] = target: T1, caspase-3 (Homo sapiens, UniProt P42574); assay: Nanoaggregation of [19F]-C-SNAT4 after caspase-3 activation (DLS, TEM); assay type: biochemical
T1 construct: before and after addition of active caspase-3 (Casp3) enzyme; purchased Sigma; host or cells: E. coli
T1 sequence (P42574 29-175 limits assumed): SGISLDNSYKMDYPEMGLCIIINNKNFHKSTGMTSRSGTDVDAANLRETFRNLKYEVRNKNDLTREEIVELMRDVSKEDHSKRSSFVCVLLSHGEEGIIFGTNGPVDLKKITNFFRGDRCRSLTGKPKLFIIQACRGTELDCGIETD
T1 sequence (P42574 176-277 limits assumed): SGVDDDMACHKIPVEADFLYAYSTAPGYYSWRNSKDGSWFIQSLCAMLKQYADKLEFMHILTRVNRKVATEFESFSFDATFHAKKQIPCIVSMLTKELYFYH
Experimental: FIG. 1C illustrates the TEM images of [^19F]-C-SNAT4 before and after addition of active caspase-3 (Casp3) enzyme. [^19F]-C-SNAT4 (20 μM) was incubated with caspase-3 (2×10^−3U mL^−1, human, recombinant from E. coli, Sigma) in caspase buffer at 37° C. overnight.
FIG. 12 illustrates in vitro validation and nanoaggregation characterization of [^19F]-C-SNAT4. [^19F]-C-SNAT4 and formation of cycl-[^19F]-SNAT4 after [^19F]-C-SNAT4 incubated with caspase-3 were analyzed by (A) HPLC, (B) DLS of [^19F]-C-SNAT4 without and with caspase-3 incubation. [^19F]-C-SNAT4 (20 μM) was incubated with caspase-3 (2×10^−3U mL^−1, human, recombinant from E. coli, Sigma) in caspase buffer (50 mM HEPES, 100 mM NaCl, 1 mM EDTA, 10 mM TCEP, 10% glycerol and 0.1% CHAPS at pH 7.4) at 37° C. overnight.

[5] = system: H460 cells; assay: MTS cell viability assay in H460 cells; assay type: cell-based, human
Experimental: (§1) FIG. 13 illustrates cellular toxicity analysis in H460 and H1299 cells. Cells were incubated at different concentration of [^19F]-C-SNAT4 over 24 hours. The viability of cells was measured using an MTS assay.
FIG. 14 illustrates a Cisplatin dose response curves were assessed in H460 cells by MTS assay. The curves generated by GraphPad Prism software.
FIG. 36A illustrates the toxicity of C-SNAF4-Cy5 in heathy and apoptotic NCI-H460 measured with MTS assay (37° C., 24 h) in heathy H460 cells.
FIG. 36B illustrates the toxicity of C-SNAF4-Cy5 in H460 cells treated with cisplatin (1 μM, 24 hours) followed by incubation with C-SNAF4-Cy5 (37° C., 24 h).
Cell study: All cell lines were assessed to be pathogen-free prior to use in this study. […] Cell viability was assessed with CellTiter 96.RM AQueous One Solution Cell Proliferation Assay (MTS) kit from Promega (Madison, Wis., USA). […] After 60 min of incubation at 37° C., the absorbance was read at 490 nm with a 96 well plate reader from BMG LABTECH GmbH (Ortenberg, Germany).

[6] = system: H1299 cells; assay: MTS cell viability assay in H1299 cells; assay type: cell-based, human; conditions: H1299, up to 100 μM, 24 hours
Experimental: as §1
Cell study: All cell lines were assessed to be pathogen-free prior to use in this study. Human H460 and H1299 lung adenocarcinoma cells non-small cell lung cancer H460 (ATCC) and H1299 (ATCC) were cultured in Dulbecco's modified Eagle's medium (DMEM) (Invitrogen), supplement with 10% v/v fetal bovine serum (Life Technologies Inc.) and 1% v/v penicillin-streptomycin (100 IU/ml, […]; Life Technologies Inc.) at 37° C. in a humidified atmosphere maintained at 5% CO2. X-radiation was performed with an X-ray generator (0.2 mm Cu and 1 mm Al filter, 150 kV, Hitachi). The irradiation was carried out at room temperature at a dose rate of 0.2 Gy/min. Cell viability was assessed with CellTiter 96.RM AQueous One Solution Cell Proliferation Assay (MTS) kit from Promega (Madison, Wis., USA). Briefly, 100 μl aliquots of the treated or untreated cell suspension were seeded into 96-well polystyrene tissue culture plates and 20 μl of assay reagent was added to each well. After 60 min of incubation at 37° C., the absorbance was read at 490 nm with a 96 well plate reader from BMG LABTECH GmbH (Ortenberg, Germany).

[7] = system: H460 tumor; assay: Caliper measurement of H460 tumor volumes; assay type: in vivo, mice; conditions: H460, high dose (9 mg/kg every other day x3, i.v.), day 13 after implantation
Experimental: (§2) FIG. 5B illustrates caliper measurement of H460 and H1299 tumor volumes in saline and drug-treated mice. Measurements are time after cell implantation, with high dose of cisplatin-treated (Intravenous injection, 9 mg/kg every other day for three times) in H460 and in H1299 tumor-bearing mice as arrow indicated (arrow). n=5 for each group.
(§3) Animal model and probe administration: For subcutaneous tumor models, H460 or H1299 (2×10^6 cells in 100 μl of PBS) were injection subcutaneously on the back of female nu/nu nude mice (aged 6 to 8 weeks; Charles River Laboratories). Tumor dimensions were measured periodically using a caliper (by the same researcher), with tumor volumes calculated by the following equation: volume=a×b×c/2, where a, b, and c represent three orthogonal axis of the tumor. Treatment-response analysis was performed 24 h after drug treatment. For all other experiments, animals were culled 26 h after therapy and tissues excised for analysis. For chemotherapy mouse model, tumors were grown to about 150 mm^3, and then treatment that consisted of cisplatin (Sigma-Aldrich; Low dose: 3 mg/kg; high dose: 9 mg/kg) or saline was initiated through intravenous administration, every other day for three times. Total mouse body weight and tumor size were measured every other day. Treat or left untreated. […]

[8] = system: H1299 tumor; assay: Caliper measurement of H1299 tumor volumes; assay type: in vivo, mice; conditions: H1299, high dose (9 mg/kg every other day x3, i.v.), day 21 after implantation
Experimental: as §2, §3

Question: Which second-order reaction rate [1] does the source give for `N[C@@H](CS)C(=O)O` [L-cysteine] here?
Answer: The second-order reaction rate was 3.2 M⁻¹ s⁻¹.

Question: What about the “2nd order rate constant k” value [2] of the same compound?
Answer: The value was 2.9 M⁻¹ s⁻¹.

Question: With `COC(=O)C[C@H](NC(=O)[C@H](C)NC(=O)[C@@H](NC(=O)OCc1ccccc1)C(C)C)C(=O)CF` [Z-VAD-fmk] (Cbz-Val-Ala-Asp(OMe)-CH2F) as the compound, how does the “effect on C-SNAF4-Cy5 fluorescence” value [3] read?
Answer: Its value is “Fluorescence abolishment”.

Question: Which “average size of nanoparticles (DLS)” value [4] does the source give for `CCSSCC(NC(=O)C(CC(=O)O)NC(=O)C(NC(=O)C(CCC(=O)O)NC(=O)C(CC(=O)O)NC(C)=O)C(C)C)C(=O)NCC(=O)NC(Cc1cn(CCOCCOCCOCCF)nn1)C(=O)NCc1ccc(C(=O)NCCCOc2cnc(C#N)nc2)cc1` (stereo not drawn) [[^19F]-C-SNAT4] here?
Answer: The value was “around 200 nm”.

Question: And the cytotoxicity ([5]; H460, up to 100 μM, 24 hours)?
Answer: The cytotoxicity was “no toxicity”.

Question: What about the cytotoxicity [6] of the same compound?
Answer: Its cytotoxicity is “no toxicity”.

Question: Which IC50 ([5]; H460, MTS assay, read-out: half-maximal inhibitory concentration (IC50)) does the source give for `N.N.[Cl][Pt][Cl]` [cisplatin] here?
Answer: The IC50 was 9.51 µM.

Question: What about the tumor volume [7] of the same compound?
Answer: The tumor volume was 690.8±88.6 mm^3.

Question: What about the tumor volume [8] of the same compound?
Answer: Its tumor volume is 1348.5±356.0 mm^3.
